The assay concerns BDF1 mice, P388 leukemia ip, median survival T/C. The assay is described as follows: NCI In Vivo Anticancer Drug Screen. Data for tumor model P388 Leukemia (intraperitoneal) in B6D2F1 (BDF1) mice. To be noted: endpoint: median survival time, higher = longer survival. The method in brief:
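Read-out is survival of treated animals expressed relative to the vehicle group, as a T/C ratio.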

Where [1] appears, read: dose: 12.5 mg/kg/injection, schedule: Q01DX009 (ip), vehicle: Klucel (hydroxypropylcellulose) (HPC).
Setting [2] is: dose: 25.0 mg/kg/injection, schedule: Q01DX009 (ip), vehicle: Klucel (hydroxypropylcellulose) (HPC).
Where [3] appears, read: dose: 35.0 mg/kg/injection, schedule: Q01DX009 (ip), vehicle: Klucel (hydroxypropylcellulose) (HPC).
Setting [4] is: dose: 50.0 mg/kg/injection, schedule: Q04DX003 (ip), vehicle: saline with Tween-80.
Setting [5] is: dose: 100.0 mg/kg/injection, schedule: Q04DX003 (ip), vehicle: saline with Tween-80.
[6] abbreviates: dose: 200.0 mg/kg/injection, schedule: Q04DX003 (ip), vehicle: saline with Tween-80.
[7] abbreviates: dose: 100.0 mg/kg/injection, schedule: Q01DX009 (ip), vehicle: Klucel (hydroxypropylcellulose) (HPC).
Where [8] appears, read: dose: 12.5 mg/kg/injection, schedule: Q04DX003 (ip), vehicle: Klucel (hydroxypropylcellulose) (HPC).
Setting [9] is: dose: 25.0 mg/kg/injection, schedule: Q04DX003 (ip), vehicle: Klucel (hydroxypropylcellulose) (HPC).
Setting [10] is: dose: 50.0 mg/kg/injection, schedule: Q04DX003 (ip), vehicle: Klucel (hydroxypropylcellulose) (HPC).
[11] abbreviates: dose: 100.0 mg/kg/injection, schedule: Q04DX003 (ip), vehicle: Klucel (hydroxypropylcellulose) (HPC).
[12] abbreviates: dose: 200.0 mg/kg/injection, schedule: Q04DX003 (ip), vehicle: Klucel (hydroxypropylcellulose) (HPC).
The mark [13] stands for this setting: dose: 12.5 mg/kg/injection, schedule: Q01DX009 (ip), vehicle: saline with Tween-80.
Where [14] appears, read: dose: 200.0 mg/kg/injection, schedule: Q01DX009 (ip), vehicle: Klucel (hydroxypropylcellulose) (HPC).
The mark [15] stands for this setting: dose: 400.0 mg/kg/injection, schedule: Q01DX009 (ip), vehicle: Klucel (hydroxypropylcellulose) (HPC).
Where [16] appears, read: dose: 400.0 mg/kg/injection, schedule: Q04DX003 (ip), vehicle: Klucel (hydroxypropylcellulose) (HPC).
The mark [17] stands for this setting: dose: 300.0 mg/kg/injection, schedule: Q01DX009 (ip), vehicle: saline with Tween-80.
The mark [18] stands for this setting: dose: 50.0 mg/kg/injection, schedule: Q01DX009 (ip), vehicle: saline with Tween-80.
[19] abbreviates: dose: 100.0 mg/kg/injection, schedule: Q01DX009 (ip), vehicle: saline with Tween-80.
The mark [20] stands for this setting: dose: 50.0 mg/kg/injection, schedule: Q01DX009 (ip), vehicle: Klucel (hydroxypropylcellulose) (HPC).

Values joined by “and” are separate entries in the source; they are usually repeats but may differ in a detail not shown here. Identical values can stand only once. Toxic doses and inconclusive results are not listed.

As for `N#Cc1cccc(C[P+](c2ccccc2)(c2ccccc2)c2ccccc2)c1`, the T/C (dose: 6.25 mg/kg/injection, schedule: Q01DX009 (ip), vehicle: Klucel (hydroxypropylcellulose) (HPC)) was 86 % of control; the T/C under setting [1] was 95 % of control; the T/C (dose: 17.0 mg/kg/injection, schedule: Q04DX003 (ip), vehicle: Klucel (hydroxypropylcellulose) (HPC)) was 95 % of control and 104 % of control; the T/C under setting [2] is 104 % of control; the T/C under setting [3] was 86 % of control; the T/C (dose: 40.0 mg/kg/injection, schedule: Q04DX003 (ip), vehicle: Klucel (hydroxypropylcellulose) (HPC)) was 95 % of control and 100 % of control. For the same compound, the T/C (dose: 52.5 mg/kg/injection, schedule: Q04DX003 (ip), vehicle: Klucel (hydroxypropylcellulose) (HPC)) is 115 % of control.

`CC(C)(C)P(c1ccccc1)c1ccccc1`: the T/C was 111 % of control under setting [4], 107 % of control under setting [5] and 96 % of control under setting [6].

`O=C1C(NC(=O)C2CCCCC2)=C(N2CC2)C(=O)C(NC(=O)C2CCCCC2)=C1N1CC1`: the T/C under setting [2] is 123 % of control; the T/C (dose: 50.0 mg/kg/injection, schedule: Q01DX010 (ip), vehicle: saline) is 118 % of control; the T/C under setting [7] was 106 % of control; the T/C (dose: 200.0 mg/kg/injection, schedule: Q01DX010 (ip), vehicle: saline) was 150 % of control and 209 % of control; the T/C (dose: 400.0 mg/kg/injection, schedule: Q01DX010 (ip), vehicle: saline) is 86 % of control.

Turning to `CCCCCCCCCCSC#N`, the T/C is, setting by setting: (dose: 20.0 mg/kg/injection, schedule: Q04DX003 (ip), vehicle: saline) 87 % of control; (dose: 40.0 mg/kg/injection, schedule: Q04DX003 (ip), vehicle: saline) 91 % of control; (dose: 80.0 mg/kg/injection, schedule: Q04DX003 (ip), vehicle: saline) 91 % of control.

For the compound `O=[N+]([O-])/C=C/c1ccc([N+](=O)[O-])cc1`, the T/C runs as follows: under setting [4], 118 % of control; under setting [5], 118 % of control.

On to `Cc1ccc(S(=O)(=O)NN=C(c2ccccc2)c2ccccc2)cc1`, for which the T/C by setting is: under setting [8], 98 % of control; under setting [9], 103 % of control; under setting [10], 103 % of control; under setting [11], 97 % of control; under setting [12], 97 % of control.

As for `Cc1cc(N(CCCl)CCCl)c(C)cc1NC(=O)c1ccccc1`, the T/C runs as follows: under setting [13], 195 % of control; (dose: 16.5 mg/kg/injection, schedule: Q04DX003 (ip), vehicle: Klucel (hydroxypropylcellulose) (HPC)) 190 % of control; under setting [9], 118 % of control; (dose: 37.5 mg/kg/injection, schedule: Q04DX003 (ip), vehicle: Klucel (hydroxypropylcellulose) (HPC)) 113 % of control.

In the case of `CC1(C)C=C(C(Br)c2cccc(Br)c2)C(=O)c2ccccc21` (configuration not stated), the T/C by setting is: under setting [7], 120 % of control; under setting [11], 90 % of control; under setting [14], 110 % of control; under setting [12], 95 % of control; under setting [15], 110 % of control; under setting [16], 109 % of control.

Regarding `O=C(NCCc1ccccc1)Nc1ccccc1`, the T/C was 95 % of control (dose: 75.0 mg/kg/injection, schedule: Q01DX009 (ip), vehicle: saline with Tween-80); 104 % of control (dose: 150.0 mg/kg/injection, schedule: Q01DX009 (ip), vehicle: saline with Tween-80); 109 % of control under setting [17].

As for `CC(CCCC1SCC2NC(=O)NC21)C(=O)O` (configuration not stated), the T/C reads like this: under setting [7], 102 % of control; under setting [14], 91 % of control; under setting [15], 98 % of control.

Take `COc1ccc(/C=C/NC=O)cc1`: the T/C runs as follows: (dose: 50.0 mg/kg/injection, schedule: Q04DX003 (ip), vehicle: other) 105 % of control; (dose: 100.0 mg/kg/injection, schedule: Q04DX003 (ip), vehicle: other) 112 % of control; (dose: 200.0 mg/kg/injection, schedule: Q04DX003 (ip), vehicle: other) 112 % of control; (dose: 400.0 mg/kg/injection, schedule: Q04DX003 (ip), vehicle: other) 91 % of control.

As to `CCCNCc1c2c(O)c3c(O)c(C)c4c(c3c1O)C(=O)C(C)(O/C=C/C(OC)C(C)C(OC(C)=O)C(C)C(O)C(C)C(O)C(C)/C=C/C=C(/C)C(=O)N2)O4` (configuration not stated), the T/C is, setting by setting: under setting [18], 90 % of control; under setting [19], 100 % of control.

In the case of `COc1cc(N(CCCl)CCCl)c(OC)cc1/C=N/NC(=O)CC(N)C(=O)O` (configuration not stated), the T/C runs as follows: (dose: 16.0 mg/kg/injection, schedule: Q01DX009 (ip), vehicle: Klucel (hydroxypropylcellulose) (HPC)) 153 % of control; under setting [2], 150 % of control and 179 % of control; under setting [3], 153 % of control; under setting [20], 177 % of control; (dose: 65.0 mg/kg/injection, schedule: Q04DX003 (ip), vehicle: Klucel (hydroxypropylcellulose) (HPC)) 181 % of control; under setting [11], 235 % of control. Besides, the T/C is, setting by setting: (dose: 132.0 mg/kg/injection, schedule: Q04DX003 (ip), vehicle: Klucel (hydroxypropylcellulose) (HPC)) 240 % of control and 247 % of control; under setting [12], 265 % of control and 272 % of control and 180 % of control; under setting [16], 100 % of control.

With `CCC(C)Nc1ccccc1` (configuration not stated), the T/C by setting is: under setting [10], 95 % of control; under setting [11], 100 % of control; under setting [12], 108 % of control.

For the compound `CN(C)c1ccc(C(=O)NN)cc1`, the T/C runs as follows: (dose: 6.25 mg/kg/injection, schedule: Q01DX009 (ip), vehicle: saline with Tween-80) 91 % of control; under setting [13], 91 % of control; (dose: 25.0 mg/kg/injection, schedule: Q01DX009 (ip), vehicle: saline with Tween-80) 122 % of control; (dose: 25.0 mg/kg/injection, schedule: Q04DX003 (ip), vehicle: saline with Tween-80) 100 % of control; under setting [18], 115 % of control; under setting [4], 98 % of control. The T/C reads like this: under setting [19], 121 % of control; under setting [5], 107 % of control; (dose: 200.0 mg/kg/injection, schedule: Q01DX009 (ip), vehicle: saline with Tween-80) 100 % of control; under setting [6], 109 % of control; under setting [17], 106 % of control.

In the case of `CCC(C)(O)C#CC#CC(C)(O)CC` (configuration not stated), the T/C was 100 % of control under setting [1]; 100 % of control under setting [8]; 100 % of control under setting [2]; 90 % of control under setting [9]; 113 % of control under setting [20]; 95 % of control under setting [10].

On to `Nc1ccc2nc3ccccc3c(NCCCCCCCCNc3c4ccccc4nc4ccc(N)cc34)c2c1`, for which the T/C by setting is: (dose: 2.5 mg/kg/injection, schedule: Q01DX009 (ip), vehicle: water) 154 % of control; (dose: 10.0 mg/kg/injection, schedule: Q01DX009 (ip), vehicle: water) 165 % of control.

For `O=C(c1ccccc1)N1CCC(CCO)C(O)C1Cc1c[nH]c2ccccc12` (configuration not stated), the T/C is, setting by setting: (dose: 25.0 mg/kg/injection, schedule: Q01DX009 (ip), vehicle: saline) 100 % of control; (dose: 50.0 mg/kg/injection, schedule: Q01DX009 (ip), vehicle: saline) 96 % of control; (dose: 50.0 mg/kg/injection, schedule: Q04DX003 (ip), vehicle: saline) 96 % of control; (dose: 100.0 mg/kg/injection, schedule: Q01DX009 (ip), vehicle: saline) 86 % of control; (dose: 100.0 mg/kg/injection, schedule: Q04DX003 (ip), vehicle: saline) 100 % of control; (dose: 200.0 mg/kg/injection, schedule: Q01DX009 (ip), vehicle: saline) 108 % of control. The T/C runs as follows: (dose: 200.0 mg/kg/injection, schedule: Q04DX003 (ip), vehicle: saline) 96 % of control; (dose: 400.0 mg/kg/injection, schedule: Q01DX009 (ip), vehicle: saline) 110 % of control; (dose: 400.0 mg/kg/injection, schedule: Q04DX003 (ip), vehicle: saline) 98 % of control.

These data come from PubChem BioAssay AID328 (DTP/NCI, 2004).
